Read-outs that look alike come from different tables or passages of the source.

Assay type in all cases: biochemical
One assay addresses T1, BTK-WT (Homo sapiens, UniProt Q06187).
T1 construct: purified from insect cells as a full-length construct containing an N-terminal 6X-His tag; His6 (N); made in house; host or cells: insect cells (baculovirus Sf21 in Method B)
Briefly: Btk in vitro inhibitory activity (one of Method A TR-FRET, Method B electrophoretic mobility shift, Method C radiometric filter binding). The following applies: read-out: IC50 BTK-WT.

For a further assay, the target named is T2, TEC (Homo sapiens, UniProt P42680).
T2 sequence (P42680 1-631): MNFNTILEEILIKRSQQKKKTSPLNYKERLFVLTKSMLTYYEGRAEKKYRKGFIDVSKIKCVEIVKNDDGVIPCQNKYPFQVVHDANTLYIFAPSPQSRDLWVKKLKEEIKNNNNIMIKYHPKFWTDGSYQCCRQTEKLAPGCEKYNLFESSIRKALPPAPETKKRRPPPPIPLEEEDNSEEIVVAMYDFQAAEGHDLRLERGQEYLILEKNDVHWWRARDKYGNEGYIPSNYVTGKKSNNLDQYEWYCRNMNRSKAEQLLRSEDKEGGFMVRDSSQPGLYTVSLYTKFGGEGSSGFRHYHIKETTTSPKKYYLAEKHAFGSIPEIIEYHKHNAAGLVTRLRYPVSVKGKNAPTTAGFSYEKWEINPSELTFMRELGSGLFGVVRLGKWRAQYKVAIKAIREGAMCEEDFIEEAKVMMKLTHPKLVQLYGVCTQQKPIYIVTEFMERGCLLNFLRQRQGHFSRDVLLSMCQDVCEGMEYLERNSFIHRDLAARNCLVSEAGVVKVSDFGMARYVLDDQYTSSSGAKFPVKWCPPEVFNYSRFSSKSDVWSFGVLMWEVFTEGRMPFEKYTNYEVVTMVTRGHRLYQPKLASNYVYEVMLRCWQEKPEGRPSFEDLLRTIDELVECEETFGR
Nature of the assay: Inhibition of a panel of kinases, in vitro HotSpot kinase assay: TEC. The protocol:
(§1) The degree of inhibition of a panel of kinases is determined using the in vitro HotSpot kinase assay (purified enzymes, ^33P-ATP, an appropriate substrate and 1 μM ATP).

For a further assay, the target named is EGFR (Homo sapiens, UniProt P00533). Briefly: Inhibition of a panel of kinases, in vitro HotSpot kinase assay: EGFR. Here is the method: as §1
In the next assay the target is SRC (Homo sapiens, UniProt P12931). Briefly: Inhibition of a panel of kinases, in vitro HotSpot kinase assay: SRC. Here is the method:
as §1

[1] abbreviates: Table 13, A compounds, 1 μM ATP.

Chain of SRC (P12931 whole entry): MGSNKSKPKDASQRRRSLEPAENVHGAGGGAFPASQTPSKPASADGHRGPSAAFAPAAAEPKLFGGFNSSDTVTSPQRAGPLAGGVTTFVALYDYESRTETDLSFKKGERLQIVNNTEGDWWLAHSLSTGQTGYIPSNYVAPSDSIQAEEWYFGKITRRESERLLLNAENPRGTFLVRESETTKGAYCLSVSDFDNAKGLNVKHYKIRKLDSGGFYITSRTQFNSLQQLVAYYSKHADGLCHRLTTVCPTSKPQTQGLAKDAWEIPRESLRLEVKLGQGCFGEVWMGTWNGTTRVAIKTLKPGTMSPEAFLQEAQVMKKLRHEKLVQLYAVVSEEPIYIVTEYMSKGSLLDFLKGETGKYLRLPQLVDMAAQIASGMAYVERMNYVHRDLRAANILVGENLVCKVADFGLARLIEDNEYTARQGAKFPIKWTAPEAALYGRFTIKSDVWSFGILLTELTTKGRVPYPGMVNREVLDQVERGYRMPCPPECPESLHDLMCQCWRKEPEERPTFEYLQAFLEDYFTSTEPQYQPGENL
T1 sequence (Q06187 whole entry): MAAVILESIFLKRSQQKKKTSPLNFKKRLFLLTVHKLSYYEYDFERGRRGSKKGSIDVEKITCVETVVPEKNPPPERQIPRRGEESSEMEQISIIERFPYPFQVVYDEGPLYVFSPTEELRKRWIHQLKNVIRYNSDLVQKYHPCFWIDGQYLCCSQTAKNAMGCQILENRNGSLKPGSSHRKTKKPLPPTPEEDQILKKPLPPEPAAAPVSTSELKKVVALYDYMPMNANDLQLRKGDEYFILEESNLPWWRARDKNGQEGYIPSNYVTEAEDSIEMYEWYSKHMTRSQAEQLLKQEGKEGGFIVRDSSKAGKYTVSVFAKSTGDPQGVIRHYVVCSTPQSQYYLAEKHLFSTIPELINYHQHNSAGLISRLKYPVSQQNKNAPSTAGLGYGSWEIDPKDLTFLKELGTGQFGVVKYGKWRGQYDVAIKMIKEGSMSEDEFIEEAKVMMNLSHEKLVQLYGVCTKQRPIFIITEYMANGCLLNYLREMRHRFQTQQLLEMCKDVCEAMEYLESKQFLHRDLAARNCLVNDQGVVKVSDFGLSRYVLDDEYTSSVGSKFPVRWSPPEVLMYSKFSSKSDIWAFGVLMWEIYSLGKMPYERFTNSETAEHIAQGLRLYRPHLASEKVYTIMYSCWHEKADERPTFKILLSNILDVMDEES
Chain of EGFR (P00533 25-1210): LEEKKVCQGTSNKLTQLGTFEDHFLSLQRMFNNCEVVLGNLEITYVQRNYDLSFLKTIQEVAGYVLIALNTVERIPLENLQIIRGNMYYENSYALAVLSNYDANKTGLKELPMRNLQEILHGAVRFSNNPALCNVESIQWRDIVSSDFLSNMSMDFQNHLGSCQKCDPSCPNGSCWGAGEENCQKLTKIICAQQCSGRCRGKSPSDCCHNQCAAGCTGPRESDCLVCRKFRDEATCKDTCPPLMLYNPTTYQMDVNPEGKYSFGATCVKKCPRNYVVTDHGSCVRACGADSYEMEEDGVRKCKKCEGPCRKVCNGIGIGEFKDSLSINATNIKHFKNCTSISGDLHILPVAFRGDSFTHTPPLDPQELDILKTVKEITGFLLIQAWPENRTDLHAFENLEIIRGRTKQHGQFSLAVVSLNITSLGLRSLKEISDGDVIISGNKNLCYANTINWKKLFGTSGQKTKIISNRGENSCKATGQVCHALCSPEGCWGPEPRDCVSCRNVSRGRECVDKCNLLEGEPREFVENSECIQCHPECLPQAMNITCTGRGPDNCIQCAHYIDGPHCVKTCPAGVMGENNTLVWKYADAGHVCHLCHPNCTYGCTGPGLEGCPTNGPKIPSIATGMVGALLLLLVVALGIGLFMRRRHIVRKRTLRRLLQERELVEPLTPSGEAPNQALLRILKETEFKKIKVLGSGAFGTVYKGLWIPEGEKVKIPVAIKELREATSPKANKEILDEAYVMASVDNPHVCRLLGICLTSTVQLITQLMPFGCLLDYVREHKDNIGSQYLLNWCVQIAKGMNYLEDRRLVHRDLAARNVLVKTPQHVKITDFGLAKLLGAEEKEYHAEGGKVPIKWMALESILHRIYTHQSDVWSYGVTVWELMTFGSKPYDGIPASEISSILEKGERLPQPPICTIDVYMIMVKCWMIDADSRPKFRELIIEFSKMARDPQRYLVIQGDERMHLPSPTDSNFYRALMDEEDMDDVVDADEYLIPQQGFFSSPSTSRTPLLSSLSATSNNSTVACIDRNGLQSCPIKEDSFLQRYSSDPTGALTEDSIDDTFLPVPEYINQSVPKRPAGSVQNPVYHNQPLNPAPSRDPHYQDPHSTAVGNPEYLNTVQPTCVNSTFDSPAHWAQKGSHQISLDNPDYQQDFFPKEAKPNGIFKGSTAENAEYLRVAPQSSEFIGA

In the case of `Cc1cc(C(=O)N[C@@H]2CCCN(c3cnc(C(N)=O)c(Nc4cnn(C)c4)n3)[C@@H]2C)ccc1C(C)(C)O` [Example E-152, 5-((2R,3R)-3-(4-(2-hydroxypropan-2-yl)-3-methylbenzamido)-2-methylpiperidin-1-yl)-3-((1-methyl-1H-pyrazol-4-yl)amino)pyrazine-2-carboxamide], the IC50 at BTK-WT (E compounds, Table 17) was ≤ 10 nM; at TEC (E compounds, Table 17) it was ≤ 10 nM; on EGFR (E compounds, Table 17), 1000 to 10000 nM; on SRC (E compounds, Table 17), 10 to 100 nM.
For `C=CC(=O)N1CC[C@@H](N(C)c2cnc(C(N)=O)c(Nc3ccc(C4CCN(C5CC5)CC4)cc3)n2)C1` [Example E-121, (R)-5-((1-acryloylpyrrolidin-3-yl)(methyl)amino)-3-(4-(1-cyclopropylpiperidin-4-yl)phenylamino)pyrazine-2-carboxamide], the half-maximal inhibitory concentration (IC50) at BTK-WT (E compounds, Table 17) was ≤ 10 nM; against TEC (E compounds, Table 17), ≤ 10 nM; on EGFR (E compounds, Table 17) it was ≤ 10 nM; against SRC (E compounds, Table 17), 10 to 100 nM.
In the case of `C[C@@H]1[C@H](NC(=O)c2ccc(C3CC3)cc2F)CCCN1c1cnc(C(N)=O)c(Nc2ccc(N3CCN(C)CC3)c(F)c2)n1` [Example A-171, 5-[(2R,3R)-3-(4-cyclopropyl-2-fluorobenzamido)-2-methylpiperidin-1-yl]-3-{[3-fluoro-4-(4-methylpiperazin-1-yl)phenyl]amino}pyrazine-2-carboxamide], the half-maximal inhibitory concentration (IC50) at BTK-WT (Table 13, A compounds) was ≤ 10 nM; against TEC (setting [1]), 10 to 100 nM; against EGFR (setting [1]), 100 to 1000 nM; against SRC (setting [1]), 10 to 100 nM.
As to `C[C@@H]1[C@H](n2ccc3cc(C4CC4)ccc3c2=O)CCCN1c1cnc(C(N)=O)c(Nc2ccc(N3CCN(C)CC3)cc2)n1` [Example A-140, 5-[(2R,3R)-3-(6-cyclopropyl-1-oxo-1,2-dihydro-isoquinolin-2-yl)-2-methylpiperidin-1-yl]-3-{[4-(4-methylpiperazin-1-yl)phenyl]amino}pyrazine-2-carboxamide], the concentration for half-maximal inhibition (IC50) at BTK-WT (Table 13, A compounds) was ≤ 10 nM; on TEC (setting [1]), 10 to 100 nM; at EGFR (setting [1]) it was 100 to 1000 nM; at SRC (setting [1]), 10 to 100 nM.
In the case of `C[C@@H]1[C@H](NC(=O)c2ccc(C3CC3)cc2F)CCCN1c1cnc(C(N)=O)c(Nc2cnn(C)c2)n1` [Example A-110, 5-[(2R,3R)-3-(4-cyclopropyl-2-fluorobenzamido)-2-methylpiperidin-1-yl]-3-[(1-methyl-1H-pyrazol-4-yl)amino]pyrazine-2-carboxamide], the 50% inhibitory concentration (IC50) at BTK-WT (Table 13, A compounds) is ≤ 10 nM; at TEC (setting [1]), 10 to 100 nM; on EGFR (setting [1]), 1000 to 10000 nM; against SRC (setting [1]) it was 100 to 1000 nM.
In the same order, the values of `C[C@@H]1[C@H](NC(=O)c2ccc(C3CC3)cc2)CCCN1c1cnc(C(N)=O)c(Nc2cc(CN3CCCCC3)ns2)n1` [Example A-181, 5-[(2R,3R)-3-(4-cyclopropylbenzamido)-2-methylpiperidin-1-yl]-3-{[3-(piperidin-1-ylmethyl)-1,2-thiazol-5-yl]amino}pyrazine-2-carboxamide] are ≤ 10 nM, 10 to 100 nM, 1000 to 10000 nM and 10 to 100 nM.
Turning to `C=CC(=O)N1CCC[C@@H](Nc2nnc(C(N)=O)c(Nc3cc(C)ns3)n2)C1` [Example E-11, (R)-3-(1-acryloylpiperidin-3-ylamino)-5-(3-methylisothiazol-5-ylamino)-1,2,4-triazine-6-carboxamide], the IC50 was ≤ 10 nM at BTK-WT (E compounds, Table 17); ≤ 10 nM against TEC (E compounds, Table 17); ≤ 10 nM on EGFR (E compounds, Table 17); 10 to 100 nM against SRC (E compounds, Table 17).
Consider `Cc1nc(-c2ccc(C(=O)N[C@@H]3CCCN(c4cnc(C(N)=O)c(Nc5cnn(C)c5)n4)[C@@H]3C)cc2)cs1` [Example E-155, 3-((1-methyl-1H-pyrazol-4-yl)amino)-5-((2R,3R)-2-methyl-3-(4-(2-methylthiazol-4-yl)benzamido)piperidin-1-yl)pyrazine-2-carboxamide], for which the 50% inhibitory concentration (IC50) at BTK-WT (E compounds, Table 17) was ≤ 10 nM; against TEC (E compounds, Table 17), ≤ 10 nM; against EGFR (E compounds, Table 17), 100 to 1000 nM; at SRC (E compounds, Table 17), 10 to 100 nM.
As for `C[C@@H]1[C@H](NC(=O)c2ccc(C3CC3)cc2)CCCN1c1cnc(C(N)=O)c(Nc2ccc(N3CCN(C)C[C@@H]3C)cc2)n1` [Example E-148, 5-((2R,3R)-3-(4-cyclopropylbenzamido)-2-methylpiperidin-1-yl)-3-((4-((S)-2,4-dimethylpiperazin-1-yl)phenyl)amino)pyrazine-2-carboxamide], the concentration for half-maximal inhibition (IC50) at BTK-WT (E compounds, Table 17) is ≤ 10 nM; against TEC (E compounds, Table 17), ≤ 10 nM; against EGFR (E compounds, Table 17) it was 100 to 1000 nM; on SRC (E compounds, Table 17), 10 to 100 nM.
Take `C=CC(=O)N1CCC[C@@H](N(C)c2cnc(C(N)=O)c(Nc3ccc(C4(C)CCN(C5CCCC5)CC4)cc3)n2)C1` [Example E-103, (R)-5-((1-acryloylpiperidin-3-yl)(methyl)amino)-3-(4-(1-cyclopentyl-4-methylpiperidin-4-yl)phenylamino)pyrazine-2-carboxamide]: the half-maximal inhibitory concentration (IC50) is ≤ 10 nM on BTK-WT (E compounds, Table 17); ≤ 10 nM against TEC (E compounds, Table 17); ≤ 10 nM against EGFR (E compounds, Table 17); ≤ 10 nM at SRC (E compounds, Table 17).
On to `C=CC(=O)N1CCC[C@@H](N(C)c2cnc(C(N)=O)c(Nc3ccc(C4CCN(C5CCCC5)CC4)cc3)n2)C1` [Example E-125, (R)-5-((1-acryloylpiperidin-3-yl)(methyl)amino)-3-(4-(1-cyclopentylpiperidin-4-yl)phenylamino)pyrazine-2-carboxamide], for which the IC50 at BTK-WT (E compounds, Table 17) was ≤ 10 nM; against TEC (E compounds, Table 17), ≤ 10 nM; on EGFR (E compounds, Table 17) it was 10 to 100 nM; at SRC (E compounds, Table 17) it was ≤ 10 nM.
Consider `C[C@@H]1[C@H](NC(=O)c2ccc(C3CC3)cc2F)CCCN1c1cnc(C(N)=O)c(Nc2ccc(C3(C)CCN(C4CCCC4)CC3)cc2)n1` [Example A-121, 3-{[4-(1-cyclopentyl-4-methylpiperidin-4-yl)phenyl]amino}-5-[(2R,3R)-3-(4-cyclopropyl-2-fluorobenzamido)-2-methylpiperidin-1-yl]pyrazine-2-carboxamide], for which the IC50 was ≤ 10 nM at BTK-WT (Table 13, A compounds); ≤ 10 nM against TEC (setting [1]); 10 to 100 nM at EGFR (setting [1]); ≤ 10 nM against SRC (setting [1]).
Regarding `C[C@@H]1[C@H](NC(=O)c2ccc(C3CC3)cc2)CCCN1c1cnc(C(N)=O)c(Nc2ccc(N3CCN(C4COC4)C[C@@H]3C)cc2)n1` [Example E-142, 5-((2R,3R)-3-(4-cyclopropylbenzamido)-2-methylpiperidin-1-yl)-3-((4-((S)-2-methyl-4-(oxetan-3-yl)piperazin-1-yl)phenyl)amino)pyrazine-2-carboxamide], the IC50 is ≤ 10 nM on BTK-WT (E compounds, Table 17); ≤ 10 nM against TEC (E compounds, Table 17); 1000 to 10000 nM on EGFR (E compounds, Table 17); 10 to 100 nM at SRC (E compounds, Table 17).
As for `C[C@@H]1[C@H](NC(=O)c2ccc3c(c2)C(C)(C)OC3)CCCN1c1cnc(C(N)=O)c(Nc2cnn(C)c2)n1` [Example E-153, 5-((2R,3R)-3-(3,3-dimethyl-1,3-dihydroisobenzofuran-5-carboxamido)-2-methylpiperidin-1-yl)-3-((1-methyl-1H-pyrazol-4-yl)amino)pyrazine-2-carboxamide], the IC50 at BTK-WT (E compounds, Table 17) was ≤ 10 nM; on TEC (E compounds, Table 17), ≤ 10 nM; on EGFR (E compounds, Table 17), 1000 to 10000 nM; at SRC (E compounds, Table 17), 10 to 100 nM.
Consider `C=CC(=O)N1CC[C@@H](N(C)c2nnc(C(N)=O)c(Nc3cc(C)ns3)n2)C1` [Example E-12, (R)-3-((1-acryloylpyrrolidin-3-yl)(methyl)amino)-5-(3-methylisothiazol-5-ylamino)-1,2,4-triazine-6-carboxamide], for which the IC50 was ≤ 10 nM on BTK-WT (E compounds, Table 17); ≤ 10 nM against TEC (E compounds, Table 17); 10 to 100 nM at EGFR (E compounds, Table 17); 10 to 100 nM on SRC (E compounds, Table 17).
On to `Cn1cc(Nc2nc(N3C[C@@H](NC(=O)c4ccc(C5CC5)cc4)CC(F)(F)C3)cnc2C(N)=O)cn1` [Example A-187, (S)-5-(5-(4-cyclopropylbenzamido)-3,3-difluoropiperidin-1-yl)-3-(1-methyl-1H-pyrazol-4-ylamino)pyrazine-2-carboxamide], for which the IC50 on BTK-WT (Table 13, A compounds) is 100 to 1000 nM; against TEC (setting [1]), 1000 to 10000 nM; on EGFR (setting [1]) it was 1000 to 10000 nM; on SRC (setting [1]), > 10000 nM.
For the compound `C[C@@H]1[C@H](NC(=O)c2ccc(C3CC3)cc2F)CCCN1c1cnc(C(N)=O)c(Nc2cc(CN3CCOCC3)ns2)n1` [Example A-128, 5-[(2R,3R)-3-(4-cyclopropyl-2-fluorobenzamido)-2-methylpiperidin-1-yl]-3-{[3-(morpholin-4-ylmethyl)-1,2-thiazol-5-yl]amino}pyrazine-2-carboxamide], the IC50 on BTK-WT (Table 13, A compounds) is ≤ 10 nM; on TEC (setting [1]), 10 to 100 nM; against EGFR (setting [1]), 100 to 1000 nM; against SRC (setting [1]), 10 to 100 nM.

Source of the values: patent publication US20210070748A1, “INHIBITORS OF BRUTONS TYROSINE KINASE” (Pharmacyclics LLC, priority 2015, published 2021).
